Entries after “also recorded” stand apart in the source; their conditions may differ.
Experiments:
[1] = Side effect evaluation, clinical study (sedation); assay type: in vivo, human; settings: clomipramine 22.4 mg, triple C 7.5 + S 11.3 + F 5.9 mg
Procedure: (§1) Patients with premature ejaculation of 60 seconds or less were divided into 4 groups of twenty people. […] A dose was taken 3 hours before the sexual intercourse begins, and the administration period was for 3 weeks. The effect of the administration of the drugs to the patients examined through interviews with the patients.
A side effect incidence rate of sedation was investigated among patients who took each drug in Example 4.

[2] = system: premature ejaculation patients; settings: clomipramine 25 mg or 50 mg per day; sertraline 50 mg to 200 mg per day; fluoxetine 40 mg; cited from earlier work
[3] = clomipramine 50 mg; sertraline 50 mg to 200 mg per day; fluoxetine 40 mg and another report; cited from earlier work
[4] = system: Patients with premature ejaculation of 60 seconds or less; assay: Clinical study: treatment effect in patients with premature ejaculation; assay type: in vivo, human; settings: sertraline 50.0 mg, fluoxetine 20.0 mg, triple C 7.5 + S 11.3 + F 5.9 mg, 3 weeks; for Patient no. with ELT of 10 min or over: of 20 patients per group, daily dose clomipramine 22.4 mg, 3 hours before intercourse; for Treatment effect: share of 20 patients with ELT 10 min or more, clomipramine 22.4 mg
Procedure: Patients with premature ejaculation of 60 seconds or less were divided into 4 groups of twenty people. […] A dose was taken 3 hours before the sexual intercourse begins, and the administration period was for 3 weeks. The effect of the administration of the drugs to the patients examined through interviews with the patients. A drug was determined as effective when the patient's ejaculation latency time had been 10 minutes or more.

[5] = system: sexually active male Crl:CD (SD) rats; assay: Pharmacological effect evaluation (rats): copulatory behavior test, ejaculation latency time; assay type: in vivo; settings: single drugs and double-drug combinations, C 2.70, S 6.02, F 2.41 mg/kg; for Ejaculation latency time, mean ± S.E.M.: single oral, test 3 h after dosing; for Increasing rate of ELT: vs negative control
Procedure: According to the method of Brain Res Brain Res Protoc, 1997, (1):203-9, this experiment was executed by employing male and female Crl:CD (SD) rats above 20 weeks old as test animals.
The female rats were anesthetized by the intraperitoneal injection of combination of ketamine 75 mg/kg and xylazine 25 mg/kg. After performing laparotomy, the ovaries were removed and peritoneal wall was closed with sutures. 2 ml of 10% ampicillin was injected intraperitoneally and the female rats had recovery period of 7 days. Ovariectomied females were brought into artificial estrus by subcutaneous injection of 20 μg/rat of estradiol benzoate, dissolved in 0.2 ml of sesame oil, about 52 hours before the administration of a test compound, followed by s.c injection of 1 mg/rat of progestrerone, dissolved in 0.2 ml of sesame oil, about 4 hours before the administration of a test compound.
Screening test was performed in an observation cage (60×40×30 cm) with plexiglass front. Before screening test, the male rats were allowed to adapt to the observation cage for 10 minutes and then the female rats with artificial estrus were brought into the cage. If male rats had ejaculated within 30 minutes, they were regarded as sexually active ones. Selected male rats went through copulatory experience for 5 times at 3 days intervals.
The experienced males were divided into 15 groups of about 10 animals so that the mean ejaculation latency time (ELT) of groups are similar. Test compound was single orally administered.
Group 1 as a negative control was administered with 0.5% methylcellulose 1500 (Sigma Co., hereinafter as “MC 1500”). […] Groups 5˜7 were administered with double-drug combinations. Groups 8˜15 were administered with triple-drug combinations having various doses. Detailed doses are represented in Table 2 below.
After 2 hours and 50 minutes from the administration of test compounds, the male rats were allowed to adapt to the observation cage for 10 minutes. Then copulatory behavior test was initiated with the introduction of female rats with artificial estrus into the observation cage. The ejaculation latency time (ELT) as the time from the first intromission until the ejaculation was evaluated.

[6] = rat, in vivo, po
Procedure: Rats were supplemented with about 200 μl of heparinized saline (20 IU/ml) at each sampling times.
The maximum plasma concentration (Cmax) and the time to reach Cmax (Tmax) were obtained from the plasma concentration-time curve. The area under the plasma concentration-time curve (AUC) was calculated by using the trapezoidal rule.

[7] = Side effect evaluation, clinical study (nausea); assay type: in vivo, human; settings: sertraline 50.0 mg, triple C 7.5 + S 11.3 + F 5.9 mg
Procedure: as §1
A side effect incidence rate of nausea was investigated among patients who took each drug in Example 4.

SMILES	Incidence rate of sedation ([1]; 20 patients) [%]	No. of sedation ([1]; of 20 patients)	Ejaculation delay effect (literature) [2]	Side effects (literature) [3]	Patient no. with ELT of 10 min or over [4]	Treatment effect [4]	Ejaculation latency time, mean ± S.E.M. [5] [s]	Increasing rate of ELT [5] [%]	Cmax and AUC after triple-drug combination compared with single drug administration (in words) [6]	Incidence rate of nausea ([7]; 20 patients) [%]	No. of nausea ([7]; of 20 patients)	Treatment effect ([4]; listed as sertraline)
CN(C)CCCN1c2ccccc2CCc2ccc(Cl)cc21 [Clomipramine, clomipramine]	70	14	ejaculation latency effect; also recorded: ejaculation was delayed	constipation, dry-mouth, nausea, drowsiness, headache and dizziness	15	75%	177.2 ± 47.6	−14.3				
CNCCC(Oc1ccc(C(F)(F)F)cc1)c1ccccc1 (centres unmarked) [Fluoxetine, fluoxetine]			the ejaculation delay effect was weak	drowsiness, dry-mouth, nausea, vomiting; also recorded: nausea, headache, and insomnia	0	the curative effect did not show up	141.3 ± 51.2	−31.7	increases in Cmax and AUC			
CN[C@H]1CC[C@@H](c2ccc(Cl)c(Cl)c2)c2ccccc21 [Sertraline, sertraline]			the ejaculation was delayed	nausea, vomiting	8	40%			only AUC increased significantly	90	18	about 40%

Reference: patent publication US8461146B2, “Pharmaceutical composition for the treatment of premature ejaculation” (priority 2008, dated 2013)
